These results are taken from patent US20250346564A1 (ARase Therapeutics Inc., priority 2022, published 2025).

The target in assay [1] is T1, PARG (Homo sapiens (Human), UniProt Q86W56). Briefly: PARG TFMU assay (4-(trifluoromethyl)umbelliferone substrate). It is filed as biochemical. To be noted: PARG 250 pM or 2 nM, 10-point dose response. On the procedure:
Example C. Inhibition of PARG TEMU Assay
The ability of the compounds of the Examples to inhibit PARG activity in 4. (trifluoromethyl)umbelliferone (TFMU) assay was determined as described below. PARG inhibitors were added into 384 well plate for a 10-point dose response curve at 1:3 dilutions. TFMU PARG substrate and PARG (250 pM or 2 nM) were then added to the plate to initiate enzymatic reaction. After incubation with the reagent, […] was read. IC50 values were calculated using set control points for 100% inhibition as no enzyme and 0% inhibition 250 pM or 2 nM of PARG enzyme.

Assay [2] addresses T1, PARG. In words: PARG target engagement cellular assay (PAR polymer immunostaining after cisplatin). It is filed as cell-based. To be noted: HCC1806 cells treated with cisplatin, then compound titration for 1 h; PAR polymer antibody readout. On the procedure:
Example a. Inhibition of PARG Target Engagement Cellular Assay
The ability of the compounds of the Examples to inhibit PARG was determined as described below. After treating HCC1806 cells with cisplatin, followed by PARG inhibitor compound titration for 1 h, the cells were fixed in formaldehyde. The cells were permeabilized, blocked, and incubated with antibody against poly (ADP) ribose (PAR) polymer. The cells were then washed and incubated with IR 800 conjugated secondary antibody together with TO-PRO3 iodide nuclear stain. After washing, images of the cells were captured and analyzed on Odyssey CLx instrument and analyzed using LI-COR image studio software.

T1 sequence (Q86W56 whole entry): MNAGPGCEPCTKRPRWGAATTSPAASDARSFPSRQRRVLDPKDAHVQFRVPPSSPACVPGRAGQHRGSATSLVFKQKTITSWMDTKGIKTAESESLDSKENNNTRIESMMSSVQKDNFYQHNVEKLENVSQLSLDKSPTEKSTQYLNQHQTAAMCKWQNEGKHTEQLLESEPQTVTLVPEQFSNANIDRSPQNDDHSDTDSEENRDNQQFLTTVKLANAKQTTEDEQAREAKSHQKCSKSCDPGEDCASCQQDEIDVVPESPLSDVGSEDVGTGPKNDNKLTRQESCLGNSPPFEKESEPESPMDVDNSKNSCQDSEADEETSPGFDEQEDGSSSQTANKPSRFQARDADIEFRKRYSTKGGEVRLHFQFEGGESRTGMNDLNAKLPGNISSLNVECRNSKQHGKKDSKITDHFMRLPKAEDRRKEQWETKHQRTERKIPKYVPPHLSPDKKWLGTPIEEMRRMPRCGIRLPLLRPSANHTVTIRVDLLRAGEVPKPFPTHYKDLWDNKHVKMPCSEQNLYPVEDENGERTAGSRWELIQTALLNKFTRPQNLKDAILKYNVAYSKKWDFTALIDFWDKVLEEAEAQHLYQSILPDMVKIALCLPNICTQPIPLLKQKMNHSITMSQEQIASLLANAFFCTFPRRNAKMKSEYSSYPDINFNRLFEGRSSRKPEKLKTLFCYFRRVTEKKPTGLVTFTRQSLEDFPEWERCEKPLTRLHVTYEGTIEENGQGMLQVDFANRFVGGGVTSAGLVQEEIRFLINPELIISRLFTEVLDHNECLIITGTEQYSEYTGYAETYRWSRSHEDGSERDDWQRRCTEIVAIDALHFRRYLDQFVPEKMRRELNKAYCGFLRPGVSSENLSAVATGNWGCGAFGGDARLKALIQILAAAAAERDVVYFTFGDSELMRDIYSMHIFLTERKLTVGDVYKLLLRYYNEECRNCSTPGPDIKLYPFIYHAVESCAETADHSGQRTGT

The IC50 is the concentration that gives 50% inhibition. Read a high IC50 as weaker potency. With `NC(=O)/C=C/Cn1c(=O)[nH]c2ccc(S(=O)(=O)NC34CC(C3)C4)cc2c1=O` [Example 3, (2E)-4-[6-({bicyclo[1.1.1]pentan-1-yl}sulfamoyl)-2,4-dioxo-1H-quinazolin-3-yl]but-2-enamide], the IC50 against PARG [1] is 500 to 5000 nM; against PARG [2], more than 100 µM.

Consider `O=C(O)/C=C/Cn1c(=O)[nH]c2ccc(S(=O)(=O)NC34CC(C3)C4)cc2c1=O` [Example 2, (2E)-4-[6-({bicyclo[1.1.1]pentan-1-yl}sulfamoyl)-2,4-dioxo-1H-quinazolin-3-yl]but-2-enoic Acid], for which the figures for the IC50 against PARG [1] and on PARG [2] were not below 5000 nM and more than 100 µM, respectively.

On PARG [2], `CCn1c(=O)c2cc(S(=O)(=O)NC3(C)CCOC3)ccc2n(CC)c1=O` (stereo not drawn) [Example 8, 1,3-diethyl-N-(3-methyloxolan-3-yl)-2,4-dioxoquinazoline-6-sulfonamide] displayed an IC50 of more than 100 µM.

On to `CCn1c(=O)c2cc(S(=O)(=O)NC3(C)CSC3)ccc2n(CC)c1=O` [Example 5, 1,3-diethyl-N-(3-methylthietan-3-yl)-2,4-dioxoquinazoline-6-sulfonamide], for which the IC50 against PARG [1] is 500 to 5000 nM; on PARG [2], more than 100 µM.

For the compound `CCn1c(=O)c2cc(S(=O)(=O)NC3(C)COC3)ccc2n(CC)c1=O` [Example 4, 1,3-diethyl-N-(3-methyloxetan-3-yl)-2,4-dioxoquinazoline-6-sulfonamide], the IC50 at PARG [1] lay within 50 to 500 nM; against PARG [2], 10 to 100 µM.

Take `COC(=O)/C=C/CCn1c(=O)[nH]c2ccc(S(=O)(=O)NC3(C)COC3)cc2c1=O` [Example 12, methyl (E)-5-(6-(N-(3-methyloxetan-3-yl)sulfamoyl)-2,4-dioxo-1,4-dihydroquinazolin-3(2H)-yl)pent-2-enoate]: the results for the IC50 against PARG [1] and against PARG [2] were 500 to 5000 nM and more than 100 µM, respectively.

`COC(=O)/C=C/Cn1c(=O)[nH]c2ccc(S(=O)(=O)NC3(C)COC3)cc2c1=O` [Example 9, methyl (2E)-4-{6-[(3-methyloxetan-3-yl)sulfamoyl]-2,4-dioxo-1H-quinazolin-3-yl}but-2-enoate]: the values for the IC50 against PARG [1] and on PARG [2] were 500 to 5000 nM and 10 to 100 µM, respectively.

For the compound `CCn1c(=O)c2cc(S(=O)(=O)NC3(C)CCC3)ccc2n(CC)c1=O` [Example 7, 1,3-diethyl-N-(1-methylcyclobutyl)-2,4-dioxoquinazoline-6-sulfonamide], the results for the IC50 on PARG [1] and on PARG [2] were not below 5000 nM and more than 100 µM, respectively.

Take `CNC(=O)/C=C/Cn1c(=O)[nH]c2ccc(S(=O)(=O)NC3(C)COC3)cc2c1=O` [Example 19, (E)-N-methyl-4-(6-(N-(3-methyloxetan-3-yl)sulfamoyl)-2,4-dioxo-1,4-dihydroquinazolin-3(2H)-yl) but-2-enamide]: the IC50 against PARG [1] is 500 to 5000 nM; at PARG [2] it was more than 100 µM.

Turning to `CCOC(=O)/C=C/Cn1c(=O)[nH]c2ccc(S(=O)(=O)NC34CC(C3)C4)cc2c1=O` [Example 1, ethyl (2E)-4-[6-({bicyclo[1.1.1]pentan-1-yl}sulfamoyl)-2,4-dioxo-1H-quinazolin-3-yl]but-2-enoate], the IC50 was not below 5000 nM at PARG [1] and more than 100 µM against PARG [2].

For the compound `CC(C)C(=O)N1CCN(c2cc(S(=O)(=O)NC3(C)COC3)cc3c2cnn3-c2nnc(C(F)F)s2)CC1` [Example 6, 1-[5-(difluoromethyl)-1,3,4-thiadiazol-2-yl]-N-(3-methyloxetan-3-yl)-4-[4-(2-methylpropanoyl)piperazin-1-yl]indazole-6-sulfonamide], the IC50 is less than 50 nM on PARG [1] and less than 10 µM against PARG [2].

`CCn1c(=O)c2cc(S(=O)(=O)N[C@@]3(C)C[C@H]3CC#N)ccc2n(CC)c1=O` (racemic) [Example 16, N-((1SR,2SR)-2-(cyanomethyl)-1-methylcyclopropyl)-1,3-diethyl-2,4-dioxo-1,2,3,4-tetrahydroquinazoline-6-sulfonamide]: the results for the IC50 on PARG [1] and at PARG [2] were not below 5000 nM and more than 100 µM, respectively.

`CN(CC(F)F)C(=O)N1CCN(c2cc(S(=O)(=O)NC3(C#N)COC3)cc3c2cnn3-c2nnc(C(F)F)s2)CC1` [Example 41, 4-(6-(N-(3-cyanooxetan-3-yl)sulfamoyl)-1-(5-(difluoromethyl)-1,3,4-thiadiazol-2-yl)-1H-indazol-4-yl)-N-(2,2-difluoroethyl)-N-methylpiperazine-1-carboxamide] yielded an IC50 against PARG [1] of less than 50 nM.

Turning to `CC[C@H]1C[C@@]1(C)NS(=O)(=O)c1ccc2c(c1)c(=O)n(CC)c(=O)n2CC` (single isomer, unassigned) [Example 13D], the results for the IC50 on PARG [1] and against PARG [2] were not below 5000 nM and more than 100 µM, respectively.

In turn, `CC(C)C(=O)N1CCN(c2cc(S(=O)(=O)NC3(C)COC3)cc3c2cnn3-c2nnc(Br)s2)CC1` [Example 81, 1-(5-bromo-1,3,4-thiadiazol-2-yl)-4-(4-isobutyrylpiperazin-1-yl)-N-(3-methyloxetan-3-yl)-1H-indazole-6-sulfonamide] returned an IC50 against PARG [1] of less than 50 nM.

With `CC(C)C(=O)N1CCN(c2cc(S(=O)(=O)NC3(CF)COC3)cc3c2cnn3-c2nncs2)CC1` [Example 44, N-(3-(fluoromethyl)oxetan-3-yl)-4-(4-isobutyrylpiperazin-1-yl)-1-(1,3,4-thiadiazol-2-yl)-1H-indazole-6-sulfonamide], the IC50 against PARG [1] is less than 50 nM.

Take `CCn1c(=O)c2cc(S(=O)(=O)N[C@@]3(C)C[C@H]3CCO)ccc2n(CC)c1=O` (single isomer, unassigned) [Example 15A]: the IC50 against PARG [1] is 500 to 5000 nM; against PARG [2], more than 100 µM.

Compound `CN(C)c1cc(S(=O)(=O)NC2(C)COC2)cc2c1cnn2-c1nnc(C(F)F)s1` [Example 26, 1-(5-(difluoromethyl)-1,3,4-thiadiazol-2-yl)-4-(dimethylamino)-N-(3-methyloxetan-3-yl)-1H-indazole-6-sulfonamide] displayed a concentration for half-maximal inhibition (IC50) against PARG [1] of 50 to 500 nM.

For `COC(=O)/C=C/Cn1c(=O)c2cc(S(=O)(=O)NC3(C)COC3)ccc2n(CC2COC2)c1=O` [Example 11, methyl (2E)-4-{6-[(3-methyloxetan-3-yl)sulfamoyl]-1-(oxetan-3-ylmethyl)-2,4-dioxoquinazolin-3-yl}but-2-enoate], the IC50 against PARG [1] is 500 to 5000 nM; against PARG [2], less than 10 µM.

At PARG [1], `CC1(NS(=O)(=O)c2cc(N3CCN(C(=O)C4CCCC4)CC3)c3cnn(-c4nnc(C(F)F)s4)c3c2)COC1` [Example 76, 4-(4-(cyclopentanecarbonyl)piperazin-1-yl)-1-(5-(difluoromethyl)-1,3,4-thiadiazol-2-yl)-N-(3-methyloxetan-3-yl)-1H-indazole-6-sulfonamide] yielded an IC50 of less than 50 nM.

`Cc1ncc(Cn2c(=O)[nH]c3ccc(S(=O)(=O)NC4(C#N)COC4)cc3c2=O)s1` [Example 25A, N-(3-cyanooxetan-3-yl)-3-((2-methylthiazol-5-yl)methyl)-2,4-dioxo-1,2,3,4-tetrahydroquinazoline-6-sulfonamide]: the IC50 at PARG [1] is 50 to 500 nM.

On to `Cc1ncc(Cn2c(=O)[nH]c3ccc(S(=O)(=O)NC4(CF)COC4)cc3c2=O)s1` [Example 28A, N-(3-(fluoromethyl)oxetan-3-yl)-3-((2-methylthiazol-5-yl)methyl)-2,4-dioxo-1,2,3,4-tetrahydroquinazoline-6-sulfonamide], for which the IC50 against PARG [1] lay within 50 to 500 nM.

For the compound `CCn1c(=O)c2cc(S(=O)(=O)N[C@@]3(C)CO[C@H]3C)ccc2n(CC)c1=O` (single isomer, unassigned) [Example 17A], the IC50 at PARG [1] fell in the range of 50 to 500 nM; against PARG [2] it was 10 to 100 µM.

In turn, `CC(C)C(=O)N1CCN(c2cc(S(=O)(=O)NC3(C)COC3)cc3c2cnn3-c2nnc(C(F)F)s2)C[C@@H]1C` (single isomer, unassigned) [Example 79] had an IC50 against PARG [1] of less than 50 nM.

As for `Cn1ncc2ccc(S(=O)(=O)NC3(C)COC3)cc21` [Example 72, 1-methyl-N-(3-methyloxetan-3-yl)-1H-indazole-6-sulfonamide], the IC50 on PARG [1] was not below 5000 nM.

Consider `COc1cc(S(=O)(=O)NC2(C)COC2)cc2c1cnn2-c1nnc(C(F)F)s1` [Example 73, 1-(5-(difluoromethyl)-1,3,4-thiadiazol-2-yl)-4-methoxy-N-(3-methyloxetan-3-yl)-1H-indazole-6-sulfonamide], for which the IC50 against PARG [1] was in the range of 50 to 500 nM.

`O=C(C1CCCC1)N1CCN(c2cc(S(=O)(=O)NC3(CF)COC3)cc3c2cnn3-c2nnc(C(F)F)s2)CC1` [Example 34, 4-(4-(cyclopentanecarbonyl)piperazin-1-yl)-1-(5-(difluoromethyl)-1,3,4-thiadiazol-2-yl)-N-(3-(fluoromethyl)oxetan-3-yl)-1H-indazole-6-sulfonamide]: the IC50 at PARG [1] is less than 50 nM.

In turn, `CC(C)S(=O)(=O)N1CCN(c2cc(S(=O)(=O)NC3(C)COC3)cc3c2cnn3-c2nnc(C(F)F)s2)CC1` [Example 33, 1-(5-(difluoromethyl)-1,3,4-thiadiazol-2-yl)-4-(4-(isopropylsulfonyl)piperazin-1-yl)-N-(3-methyloxetan-3-yl)-1H-indazole-6-sulfonamide] yielded an IC50 at PARG [1] of less than 50 nM.

The compound `CCn1c(=O)c2cc(S(=O)(=O)NC3(C)CNC3)ccc2n(CC)c1=O` [Example 49, 1,3-diethyl-N-(3-methylazetidin-3-yl)-2,4-dioxo-1,2,3,4-tetrahydroquinazoline-6-sulfonamide] showed an IC50 at PARG [1] of 500 to 5000 nM.

In the case of `CC(C)C(=O)N1CCN(c2cc(S(=O)(=O)NC3(C#N)COC3)cc3c2cnn3-c2nnc(C(F)F)s2)CC1` [Example 30, N-(3-cyanooxetan-3-yl)-1-(5-(difluoromethyl)-1,3,4-thiadiazol-2-yl)-4-(4-isobutyrylpiperazin-1-yl)-1H-indazole-6-sulfonamide], the IC50 against PARG [1] is less than 50 nM.
